According to patent publication US12410160B2 (Gilead Sciences, Inc., priority 2021, dated 2025):
Like-named read-outs stand apart in the source and are kept apart here.

How the values were obtained:
[1] = biological target: human KHK-C (Homo sapiens (Human), UniProt P50053); test: KHK Biochemical Assay (IC50), ADP-Glo, KHK-C; conditions: average of at least two separate assays
In short: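 His-tagged enzyme expressed in BL21 (DE3), Ni-NTA purified. Compounds, serially diluted 1:3 in DMSO, pre-incubated 30 min with enzyme in 50 mM Hepes pH 7.4, 140 mM KCl, 5 mM MgCl2, 0.01% Triton-X, then ATP and fructose added; 4 h at room temperature. ADP formation read by ADP-Glo luminescence.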

[2] = biological target: KHK-C expressed in NRK-52E cells (Homo sapiens (Human), UniProt P50053); test: KHK-C Cell-based Assay (EC50), NRK CTG, fructose-mediated ATP-depletion
KHK-C expressed in NRK-52E cells, sequence (P50053 whole entry): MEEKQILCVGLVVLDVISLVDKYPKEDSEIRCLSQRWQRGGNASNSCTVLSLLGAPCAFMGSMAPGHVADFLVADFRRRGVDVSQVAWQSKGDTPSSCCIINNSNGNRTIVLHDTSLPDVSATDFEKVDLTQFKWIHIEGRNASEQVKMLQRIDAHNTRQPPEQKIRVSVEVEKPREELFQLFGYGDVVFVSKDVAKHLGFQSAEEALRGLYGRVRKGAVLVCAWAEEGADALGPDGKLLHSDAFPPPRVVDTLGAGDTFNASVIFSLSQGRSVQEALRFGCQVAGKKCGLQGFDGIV
Description: Compounds were tested in a high-throughput 384-well assay format for their ability to attenuate fructose-mediated ATP-depletion in Normal Rat Kidney epithelial cells (NRK-52E) using the Cell-Titer Glo (CTG) assay, which measures cellular ATP levels based on luminescence signal by using the luciferase-luciferin system. Compounds were serially diluted (1:3) in DMSO.
The plates were incubated at 37° C., 5% CO2 for one day. Cells were then transduced on day 2 with 200 MOI of Adenovirus (VQAd KHKC C-(K)-DYK ViraQuest Inc.) using the same medium and method as day-1 to induce KHK-C expression in the cells. Cells were incubated at 37° C., 5% CO2 for one day. On day-3, the medium was changed to DMEM medium (Corning, Catalog #10-014-CM) with 0.5% FBS and Penicillin-Streptomycin after washing the cells twice with sterile PBS on the BioTEK EL406 washer and dispenser. Test compounds were then diluted 200-fold into the assay plates using the BioMek FX and were incubated for 1 hour at 37° C., 5% CO2. 25 mM (final concentration) of fructose was then dispensed into the plates using the BioTEK EL406 dispenser and the plates were incubated at 37° C., 5% CO2 for 48 hours before addition of CTG reagent and measurement of luminescence signal.

[3] = read-out: NRK CTG EC50, NRK-52E cells, Cell-Titer Glo, 25 mM fructose

human KHK-C, sequence (P50053 whole entry): as above

Row | SMILES | IC50 [1] | EC50 [2, 3] | EC50 [2] | IC50 ([1]; ADP-Glo)
1 | C[C@H]1CCN1c1nc2c(c(-c3cccc([C@H]4C[C@@H](C(=O)O)C4)c3)n1)CCC2 (single isomer, unassigned) [Example 440] | 6.2 nM | 81.6 nM |  | 
2 | C[C@H]1CCN1c1nc2c(c(-c3cccc([C@H]4C[C@H](C(=O)O)C4)c3)n1)CCC2 (single isomer, unassigned) [Example 441] | 7 nM | 211 nM |  | 
3 | C[C@H]1[C@H](O)CN1c1nc2c(c(-c3ccc(C(=O)O)cc3)n1)CCC2 [Example 162, 4-(2-((2S,3R)-3-hydroxy-2-methylazetidin-1-yl)-6,7-dihydro-5H-cyclopenta[d]pyrimidin-4-yl)benzoic acid] |  |  | > 5000 nM | 93.1 nM
4 | C[C@H]1c2ccccc2CN1c1nc2c(c(-c3ccc(C(N)=O)cc3)n1)CCC2 [Example 167, (S)-4-(2-(1-methylisoindolin-2-yl)-6,7-dihydro-5H-cyclopenta[d]pyrimidin-4-yl)benzamide] |  |  | > 5000 nM | > 5000 nM
5 | C[C@H]1[C@@H](O)CN1c1nc2c(c(-c3ccc(C(N)=O)cc3)n1)CCC2 [Example 169, 4-(2-((2S,3S)-3-hydroxy-2-methylazetidin-1-yl)-6,7-dihydro-5H-cyclopenta[d]pyrimidin-4-yl)benzamide] |  |  | > 5000 nM | 4430 nM
6 | NC(=O)c1ccc(-c2nc(N3Cc4n[nH]cc4C3CO)nc3c2CCC3)cc1 (stereo not shown) [Example 172, 4-(2-(4-(hydroxymethyl)-2,6-dihydropyrrolo[3,4-c]pyrazol-5(4H)-yl)-6,7-dihydro-5H-cyclopenta[d]pyrimidin-4-yl)benzamide] |  |  | > 5000 nM | > 5000 nM
7 | NC(=O)c1ccc(-c2nc(N3CCn4nccc43)nc3c2CCC3)cc1 [Example 173, 4-(2-(2,3-dihydro-1H-imidazo[1,2-b]pyrazol-1-yl)-6,7-dihydro-5H-cyclopenta[d]pyrimidin-4-yl)benzamide] |  |  | > 5000 nM | > 5000 nM
8 | NC(=O)c1ccc(-c2nc(N3CCn4cncc43)nc3c2CCC3)cc1 [Example 174, 4-(2-(2,3-dihydro-1H-imidazo[1,5-a]imidazol-1-yl)-6,7-dihydro-5H-cyclopenta[d]pyrimidin-4-yl)benzamide] |  |  | > 5000 nM | > 5000 nM
9 | C[C@H]1[C@H](O)CN1c1nc(-c2ccc(C(N)=O)cc2)c2c(n1)C1CC2C1 [Example 176] |  |  | 2810 nM | 899 nM
10 | CC(=O)Nc1cc(-c2nc(N3C[C@@H](O)[C@@H]3C)nc3c2CCC3(F)F)ccc1C(N)=O [Example 181, 2-acetamido-4-(7,7-difluoro-2-((2S,3R)-3-hydroxy-2-methylazetidin-1-yl)-6,7-dihydro-5H-cyclopenta[d]pyrimidin-4-yl)benzamide] |  |  | 579 nM | 11 nM
11 | C[C@H]1[C@H](O)CN1c1nc2c(c(-c3ccc(CNS(C)(=O)=O)cc3)n1)CCC2 [Example 195, N-[[4-[2-[(2S,3R)-3-hydroxy-2-methyl-azetidin-1-yl]-6,7-dihydro-5H-cyclopenta[d]pyrimidin-4-yl]phenyl]methyl]methanesulfonamide] |  |  | 431 nM | 58.6 nM
12 | C[C@H]1CCN1c1nc2c(c(-c3ccc(C4(NS(C)(=O)=O)CC4)cc3)n1)CCC2 [Example 306, (S)—N-(1-(4-(2-(2-methylazetidin-1-yl)-6,7-dihydro-5H-cyclopenta[d]pyrimidin-4-yl)phenyl)cyclopropyl)methanesulfonamide] |  |  | 450 nM | 
13 | C[C@H]1CCN1c1nc2c(c(-c3ccc(CNS(C)(=O)=O)cc3)n1)CCC2 [Example 361, N-[[4-[2-[(2S)-2-methylazetidin-1-yl]-6,7-dihydro-5H-cyclopenta[d]pyrimidin-4-yl]phenyl]methyl]methanesulfonamide] |  |  | 65.7 nM | 
14 | C[C@H]1CCN1c1nc(-c2ccc(C(N)=O)cc2)c2cn[nH]c2n1 [Example 401, (S)-4-(6-(2-methylazetidin-1-yl)-1H-pyrazolo[3,4-d]pyrimidin-4-yl)benzamide] |  |  | > 5000 nM | 
15 | C[C@H]1CCN1c1nc2c(c(-c3cn(C4CC4)nn3)n1)CCC2 [Example 644, 4-(1-cyclopropyltriazol-4-yl)-2-[(2S)-2-methylazetidin-1-yl]-6,7-dihydro-5H-cyclopenta[d]pyrimidine] |  |  | 709 nM | 
16 | C[C@H]1CCN1c1nc2c(c(-c3cn(CCO)nn3)n1)CCC2 [Example 645, 2-[4-[2-[(2S)-2-methylazetidin-1-yl]-6,7-dihydro-5H-cyclopenta[d]pyrimidin-4-yl]triazol-1-yl]ethanol] |  |  | 399 nM | 

Continued, values first:

Row | IC50 [1] | EC50 [2, 3] | EC50 [2] | IC50 ([1]; ADP-Glo) | SMILES
17 | 156 nM |  | 320 nM |  | C[C@H]1CCN1c1nc2c(c(-c3cccc([S+](C)[O-])c3)n1)CCC2 (stereo in doubt) [Example 400, (S)-2-(2-methylazetidin-1-yl)-4-(3-(methylsulfinyl)phenyl)-6,7-dihydro-5H-cyclopenta[d]pyrimidine]
18 |  |  | 54.7 nM | 18.9 nM | C[C@H]1CCN1c1nc2c(c(-c3cccc(CN4CCCS4(=O)=O)c3)n1)CCC2 [Example 75, (S)-2-(3-(2-(2-methylazetidin-1-yl)-6,7-dihydro-5H-cyclopenta[d]pyrimidin-4-yl)benzyl)isothiazolidine 1,1-dioxide]
19 |  |  | 46 nM | 3.4 nM | C[C@H]1CNC(=O)c2ccc(-c3nc(N4C[C@@H](O)[C@@H]4C)nc4c3CCC4(F)F)cc2O1 [Example 87]
20 |  |  | 84.1 nM | 8.4 nM | C[C@@H]1CNC(=O)c2ccc(-c3nc(N4C[C@@H](O)[C@@H]4C)nc4c3CCC4(F)F)cc2O1 [Example 94]
21 |  |  | 251 nM | 49 nM | C[C@H]1CCN1c1nc2c(c(-c3ccc4cnccc4c3)n1)CCC2 [Example 163, (S)-6-(2-(2-methylazetidin-1-yl)-6,7-dihydro-5H-cyclopenta[d]pyrimidin-4-yl)isoquinoline]
22 |  |  | 94.5 nM | 16.4 nM | C[C@H]1[C@H](O)CN1c1nc2c(c(-c3ccc4c(c3)OCCNC4=O)n1)CCC2 [Example 164, 8-(2-((2S,3R)-3-hydroxy-2-methylazetidin-1-yl)-6,7-dihydro-5H-cyclopenta[d]pyrimidin-4-yl)-3,4-dihydrobenzo[f][1,4]oxazepin-5(2H)-one]
23 |  |  | 144 nM | 23.3 nM | C[C@H]1[C@H](O)CN1c1nc(-c2ccc(C(N)=O)nc2)c2c(n1)C(F)(F)CC2 [Example 168, 5-(7,7-difluoro-2-((2S,3R)-3-hydroxy-2-methylazetidin-1-yl)-6,7-dihydro-5H-cyclopenta[d]pyrimidin-4-yl)picolinamide]
24 |  |  | 165 nM | 23.5 nM | CNC(=O)c1ccc(-c2nc(N3C[C@@H](O)[C@@H]3C)nc3c2CCC3(F)F)cc1 [Example 171, 4-(7,7-difluoro-2-((2S,3R)-3-hydroxy-2-methylazetidin-1-yl)-6,7-dihydro-5H-cyclopenta[d]pyrimidin-4-yl)-N-methylbenzamide]
25 |  |  | 386 nM | 34.8 nM | C[C@H]1COc2cc(-c3nc(N4C[C@@H](O)[C@@H]4C)nc4c3CCC4(F)F)ccc2C(=O)N1 [Example 179, (S)-8-(7,7-difluoro-2-((2S,3R)-3-hydroxy-2-methylazetidin-1-yl)-6,7-dihydro-5H-cyclopenta[d]pyrimidin-4-yl)-3-methyl-3,4-dihydrobenzo[f][1,4]oxazepin-5(2H)-one]
26 |  |  | 177 nM | 27.4 nM | C[C@@H]1COc2cc(-c3nc(N4C[C@@H](O)[C@@H]4C)nc4c3CCC4(F)F)ccc2C(=O)N1 [Example 180, (R)-8-(7,7-difluoro-2-((2S,3R)-3-hydroxy-2-methylazetidin-1-yl)-6,7-dihydro-5H-cyclopenta[d]pyrimidin-4-yl)-3-methyl-3,4-dihydrobenzo[f][1,4]oxazepin-5(2H)-one]
27 |  |  | 89.1 nM | 21.3 nM | C[C@H]1[C@H](O)CN1c1nc(-c2ccc(C(N)=O)c(OC(F)(F)F)c2)c2c(n1)C(F)(F)CC2 [Example 183, 4-(7,7-difluoro-2-((2S,3R)-3-hydroxy-2-methylazetidin-1-yl)-6,7-dihydro-5H-cyclopenta[d]pyrimidin-4-yl)-2-(trifluoromethoxy)benzamide]
28 |  |  | 201 nM |  | C[C@H]1[C@H](F)CN1c1nc2c(c(-c3cccc(CN)c3)n1)CCC2 [Example 352, [3-[2-[(2S,3R)-3-fluoro-2-methyl-azetidin-1-yl]-6,7-dihydro-5H-cyclopenta[d]pyrimidin-4-yl]phenyl]methanamine]
29 |  |  | 217 nM |  | C[C@H]1CCN1c1nc2c(c(-c3nc4ccccc4[nH]3)n1)CCC2 [Example 389, 2-[2-[(2S)-2-methylazetidin-1-yl]-6,7-dihydro-5H-cyclopenta[d]pyrimidin-4-yl]-1H-benzimidazole]
30 |  |  | 164 nM |  | C[C@H]1CCN1c1nc2c(c(-c3ccc4c(c3)CN(S(=O)(=O)CC#N)CC4)n1)CCC2 [Example 604, (S)-2-((7-(2-(2-methylazetidin-1-yl)-6,7-dihydro-5H-cyclopenta[d]pyrimidin-4-yl)-3,4-dihydroisoquinolin-2(1H)-yl)sulfonyl)acetonitrile]
31 |  |  | 37.5 nM |  | C[C@H]1CCN1c1nc2c(c(-c3cccc(C4CCS(=O)(=O)N4)c3)n1)CCC2 (stereo partly drawn) [Example 606, 3-(3-(2-((S)-2-methylazetidin-1-yl)-6,7-dihydro-5H-cyclopenta[d]pyrimidin-4-yl)phenyl)isothiazolidine 1,1-dioxide]
32 |  |  | 32.5 nM |  | C[C@H]1[C@H](O)CN1c1nc(-c2ccc3c(c2)CNCC3)c2c(n1)C(F)(F)CC2 [Example 612, (2S,3R)-1-(7,7-difluoro-4-(1,2,3,4-tetrahydroisoquinolin-7-yl)-6,7-dihydro-5H-cyclopenta[d]pyrimidin-2-yl)-2-methylazetidin-3-ol]
33 |  |  | 39.1 nM |  | C[C@H]1CCN1c1nc(-c2ccc([C@H](N)C(F)F)cc2)c2c(n1)C(F)(F)CC2 [Example 650, (1S)-1-[4-[7,7-difluoro-2-[(2S)-2-methylazetidin-1-yl]-5,6-dihydrocyclopenta[d]pyrimidin-4-yl]phenyl]-2,2-difluoro-ethanamine]
